Data from EP3660147A1, “PROCESS FOR SELECTIVE SYNTHESIS OF 4-HYDROXYISOPHORONE AND 4-KETOISOPHORONE BY FUNGAL PEROXYGENASES” (Consejo Superior de Investigaciones Científicas (CSIC), priority 2018, dated 2020).
Several values for one entry are separate records, joined by “and”; a condition that tells them apart may be missing. Equal entries are not always repeated.

How the values were obtained:
CYP102A1 variants = settings: isophorone hydroxylation; when decoy molecules were used; range over variants; cited from earlier work
[1] = tested on: Chaetomium globosum unspecific peroxygenase CglUPO, wild-type, SEQ ID NO 1; test: Enzyme kinetics of isophorone hydroxylation (GC-MS product quantification); type: biochemical; settings: 6.25-6400 µM substrate, 100 nM enzyme, 0.5 mM H2O2, 3 min, mean of three replicates with standard errors
Text: (§1) AaeUPO (isoform II, 46 kDa), the first UPO described in 2004 (R. Ullrich and M. Hofrichter, FEBS Lett. 2005, 579, 6247-6250), is a wild-type (i.e. non-recombinant) peroxygenase purified from cultures of A. aegerita TM-A1, grown in soybean-peptone medium. MroUPO is another wild-type peroxygenase (32 kDa) purified from cultures of M. rotula DSM-25031 (German Collection of Microorganisms and Cell Cultures, Braunschweig). CglUPO (36 kDa) is a third wild-type peroxygenase recently purified from cultures of C. globosum DSM-62110.
Reactions were carried out with 6.25-6400 µM substrate and 100 nM enzyme. They were initiated adding 0.5 mM H2O2 and stopped by vigorous shaking in 5 mM sodium azide. Reaction times in which the reaction velocity was linear were previously selected: 5 min for AaeUPO, 3 min for CglUPO and 1 min for rHinUPO. All reactions were performed in triplicates. Product quantification was carried out by GC-MS using external standard curves, and kinetic parameters - turnover number (kcat), Michaelis constant (Km) and catalytic efficiency (kcat/Km) - were obtained by fitting the data to the Michaelis-Menten equation, or the corresponding variation of this equation when substrate inhibition is occurring, using SigmaPlot (Systat Softwarwe Inc., San Jose, CA, USA). […]

[2] = tested on: Humicola insolens unspecific peroxygenase rHinUPO, recombinant protein, SEQ ID NO 2; test: as above; type: biochemical; settings: 6.25-6400 µM substrate, 100 nM enzyme, 0.5 mM H2O2, 1 min, mean of three replicates with standard errors
Text: The rCciUPO (44 kDa) and rHinUPO recombinant enzymes were provided by Novozymes A/S. rCciUPO corresponds to the protein model 7249 from the sequenced C. cinerea genome available at the JGI (http://genome.jgi.doe.gov/Copci1) used in several studies (E. D. Babot, J. C. del Río, L. Kalum, A. T. Martínez and A. Gutiérrez, Biotechnol. Bioeng. 2013, 110, 2332; E. D. Babot, J. C. del Río, M. Cañellas, F. Sancho, F. Lucas, V. Guallar, L. Kalum, H. Lund, G. Gröbe, K. Scheibner, R. Ullrich, M. Hofrichter, A. T. Martínez and A. Gutiérrez, Appl. Environ. Microbiol. 2015, 81, 4130-4142; E. D. Babot, J. C. del Río, L. Kalum, A. T. Martínez and A. Gutiérrez, ChemCatChem 2015, 7, 283-290). The rHinUPO sequence has been more recently reported (Patent US 9908860 B2) and used for oxyfunctionalizations that are not catalyzed by other UPOs. Both UPOs were expressed in Aspergillus oryzae (patent WO/2008/119780).
Reactions were carried out with 6.25-6400 µM substrate and 100 nM enzyme. […] Product quantification was carried out by GC-MS using external standard curves, and kinetic parameters - turnover number (kcat), Michaelis constant (Km) and catalytic efficiency (kcat/Km) - were obtained by fitting the data to the Michaelis-Menten equation, or the corresponding variation of this equation when substrate inhibition is occurring, using SigmaPlot (Systat Softwarwe Inc., San Jose, CA, USA). […]

[3] = substrate: CC1=CC(=O)CC(C)(C)C1; test: as above; type: biochemical, Agrocybe aegerita; settings: other: isophorone hydroxylation; 6.25-6400 µM substrate, 100 nM enzyme, 0.5 mM H2O2, 5 min; mean of three replicates with standard errors
Text: as §1
Reactions were carried out with 6.25-6400 µM substrate and 100 nM enzyme. They were initiated adding 0.5 mM H2O2 and stopped by vigorous shaking in 5 mM sodium azide. Reaction times in which the reaction velocity was linear were previously selected: 5 min for AaeUPO, 3 min for CglUPO and 1 min for rHinUPO. All reactions were performed in triplicates. Product quantification was carried out by GC-MS using external standard curves, and kinetic parameters - turnover number (kcat), Michaelis constant (Km) and catalytic efficiency (kcat/Km) - were obtained by fitting the data to the Michaelis-Menten equation, or the corresponding variation of this equation when substrate inhibition is occurring, using SigmaPlot (Systat Softwarwe Inc., San Jose, CA, USA).
The analyses were performed with a Shimadzu GC-MS QP 2010 Ultra system, using a fused-silica DB-5HT capillary column (30 m × 0.25 mm internal diameter, 0.1 µm film thickness) from J&W Scientific. The oven was heated from 50 °C (1.5 min) to 90 °C (2 min) at 30 °C min^-1, and then from 90 °C to 250 °C (15 min) at 8 °C min^-1. The injection was performed at 250 °C and the transfer line was kept at 300 °C. Compounds were identified by comparing their mass spectra and retention times with those of the available authentic standards and with the NIST library.

| Molecule | Km (CYP102A1 variants) | turnover numbers (CYP102A1 variants) | Km [1] | kcat [1] | Km [2] | kcat [2] | Km [3] | kcat [3] | kcat/Km [3] |
| --- | --- | --- | --- | --- | --- | --- | --- | --- | --- |
| CC1=CC(=O)CC(C)(C)C1 [isophorone, 3,5,5-Trimethyl-2-cyclohexen-1-one] | 380 to 440 µM | 2.5 to 5.5 s⁻¹ | 243 ± 19.8 µM | 4.4 s⁻¹ and 3.8 ± 0.1 s⁻¹ | 288 ± 39.9 µM | 23.3 ± 1.4 s⁻¹ | – | – | – |
| Agrocybe aegerita unspecific peroxygenase AaeUPO (isoform II), wild-type, SEQ ID NO 3 (Cyclocybe aegerita) (protein, is a wild-type (i.e. non-recombinant) peroxygenase purified from cultures of A. aegerita TM-A1; made in house; host or cells: Agrocybe aegerita TM-A1 cultures (native producer, non-recombinant)) EPGLPPGPLENSSAKLVNDEAHPWKPLRPGDIRGPCPGLNTLASHGYLPRNGVATPVQIINAVQEGLNFDNQAAVFATYAAHLVDGNLITDLLSIGRKTRLTGPDPPPPASVGGLNEHGTFEGDASMTRGDAFFGNNHDFNETLFEQLVDYSNRFGGGKYNLTVAGELRFKRIQDSIATNPNFSFVDFRFFTAYGETTFPANLFVDGRRDDGQLDMDAARSFFQFSRMPDDFFRAPSPRSGTGVEVVIQAHPMQPGRNVGKINSYTVDPTSSDFSTPCLMYEKFVNITVKSLYPNPTVQLRKALNTNLDFFFQGVAAGCTQVFPYGRD | – | – | – | – | – | – | 1381.3 ± 196.7 µM | 20.1 ± 1.1 s⁻¹ | 1.4±0.1 x 10^4 M^-1·s^-1 |
